pIC50: −log10 of the molar value. Bounds are passed on as bounds.

As usually defined, the pIC50 is −log10 of the IC50, conventionally taken in molar units.

T1 sequence (P08581 956-1390 limits assumed): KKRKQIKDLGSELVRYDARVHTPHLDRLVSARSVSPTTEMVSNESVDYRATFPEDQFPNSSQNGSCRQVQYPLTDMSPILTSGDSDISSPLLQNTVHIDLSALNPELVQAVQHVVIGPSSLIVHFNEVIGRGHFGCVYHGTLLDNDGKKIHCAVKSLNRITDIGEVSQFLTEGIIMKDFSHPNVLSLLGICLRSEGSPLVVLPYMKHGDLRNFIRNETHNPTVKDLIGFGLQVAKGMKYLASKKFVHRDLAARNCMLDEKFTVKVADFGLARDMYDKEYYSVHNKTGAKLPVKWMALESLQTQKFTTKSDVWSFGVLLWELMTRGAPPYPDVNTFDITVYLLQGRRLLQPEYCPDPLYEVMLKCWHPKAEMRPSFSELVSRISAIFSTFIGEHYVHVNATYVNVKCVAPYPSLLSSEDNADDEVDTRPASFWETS

This assay has as its target T1, human c-Met (Homo sapiens, UniProt P08581).
T1 construct: Recombinant GST-tagged cytosolic domains of human c-Met; 6xHis; made in house; host or cells: Sf9 or Sf21 insect cells (baculovirus)
Kind of assay: in vitro kinase assay (homogeneous time-resolved tyrosine kinase assay, METKA). Conditions: recombinant GST-tagged c-Met cytosolic domain, HTRF, 50 μM MgATP; read-out: Biological Activity (METKA IC50) Activity Code. It counts as biochemical. The procedure, abridged:
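HTRF assay with GST-tagged cytosolic c-Met domain (0.2 nM), 0.5 μM biotinylated peptide, 50 μM MgATP, pH 7.4, 5% DMSO, 80 min at room temperature; Eu-anti-pTyr/SA-APC detection, IC50 by 4-parameter fit. Other kinases identical except enzyme level: mouse c-Met 0.2, Ron 2.5, KDR 8, IGFR 0.24, EGFR 0.24, FGFR 0.14, Mer 16, TrkA 8, Tie2 8 nM.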
Background: TR-FRET usually uses a lanthanide donor and a delayed reading to cut background.
Take `COCCOc1cnc2ccc(OCc3nn(-c4cnn(C)c4)ccc3=O)cc2n1` [Example 106, 3-({[3-(2-methoxyethoxy)quinoxalin-6-yl]oxy}methyl)-1-(1-methyl-1H-pyrazol-4-yl)pyridazin-4(1H)-one]: the pIC50 was over 7.00.
For `Cn1cc(-n2ccc(=O)c(COc3ccc4ncc5c(c4c3)OCCO5)n2)cn1` [Example 107, 3-[(2,3-dihydro[1,4]dioxino[2,3-c]quinolin-9-yloxy)methyl]-1-(1-methyl-1H-pyrazol-4-yl)pyridazin-4(1H)-one] the value was over 7.00.
As to `CN(Cc1nn(-c2cnn(C)c2)ccc1=O)c1ccc2ncccc2c1` [Example 108, 1-(1-Methyl-1H-pyrazol-4-yl)-3-{[methyl(quinolin-6-yl)amino]methyl}pyridazin-4(1H)-one], the pIC50 is over 7.00.
Then `Cn1cc(-n2ccc(=O)c(COc3ccc4ncc(C(=O)N5CCOCC5)cc4c3)n2)cn1` [Example 109, 1-(1-methyl-1H-pyrazol-4-yl)-3-({[3-(morpholin-4-ylcarbonyl)quinolin-6-yl]oxy}methyl)pyridazin-4(1H)-one], with 5.52 to 6.00; and `Cn1cc(-n2ccc(=O)c(COc3ccc4ncc(NC(=O)OC(C)(C)C)cc4c3)n2)cn1` [Example 110, tert-butyl (6-{[1-(1-methyl-1H-pyrazol-4-yl)-4-oxo-1,4-dihydropyridazin-3-yl]methoxy}quinolin-3-yl)carbamate], with over 7.00; and `Cn1cc(-n2ccc(=O)c(COc3ccc4ncc(NC(=O)Nc5cnc6ccc(OCc7nn(-c8cnn(C)c8)ccc7=O)cc6c5)cc4c3)n2)cn1` [Example 111, 1,3-bis(6-{[1-(1-methyl-1H-pyrazol-4-yl)-4-oxo-1,4-dihydropyridazin-3-yl]methoxy}quinolin-3-yl)urea], with over 7.00.
Then `Cn1cc(-n2ccc(=O)c(COc3ccc4ncc(N)cc4c3)n2)cn1` [Example 112, 3-{[(3-Aminoquinolin-6-yl)oxy]methyl}-1-(1-methyl-1H-pyrazol-4-yl)pyridazin-4(1H)-one], with over 7.00.
Consider `Cn1cc(-n2ccc(=O)c(COc3ccc(N)cc3)n2)cn1` [Example 115, 3-((4-aminophenoxy)methyl)-1-(1-methyl-1H-pyrazol-4-yl)pyridazin-4(1H)-one], for which the pIC50 was 6.00 to 7.00.
Then `Cn1cc(-n2ccc(=O)c(COc3ccc(NCCCCO)cc3)n2)cn1` [Example 116, 3-((4-(4-hydroxybutylamino)phenoxy)methyl)-1-(1-methyl-1H-pyrazol-4-yl)pyridazin-4(1H)-one], with 5.52 to 6.00; and `Cn1cc(-n2ccc(=O)c(CCc3ccc(N)cc3)n2)cn1` [Example 117, 3-[2-(4-aminophenyl)ethyl]-1-(1-methyl-1H-pyrazol-4-yl)pyridazin-4(1H)-one], with 5.52 to 6.00.
Then `Cn1cc(-n2ccc(=O)c(CCc3ccc(NCCCCO)cc3)n2)cn1` [Example 118, 3-(2-{4-[(4-hydroxybutyl)amino]phenyl}ethyl)-1-(1-methyl-1H-pyrazol-4-yl)pyridazin-4(1H)-one], with 6.00 to 7.00; and `COCCOC(=O)Nc1ccc(OCc2nn(-c3cnn(C)c3)ccc2=O)cc1` [Example 119, 2-methoxyethyl (4-{[1-(1-methyl-1H-pyrazol-4-yl)-4-oxo-1,4-dihydropyridazin-3-yl]methoxy}phenyl)carbamate], with 5.52 to 6.00.
`COCCOC(=O)Nc1ccc(CCc2nn(-c3cnn(C)c3)ccc2=O)cc1` [Example 120, 2-methoxyethyl (4-{2-[1-(1-methyl-1H-pyrazol-4-yl)-4-oxo-1,4-dihydropyridazin-3-yl]ethyl}phenyl)carbamate]: the pIC50 is 5.52 to 6.00.
Then `CCOC(=O)Nc1ccc(CCc2nn(-c3cnn(C)c3)ccc2=O)cc1` [Example 121, ethyl (4-{2-[1-(1-methyl-1H-pyrazol-4-yl)-4-oxo-1,4-dihydropyridazin-3-yl]ethyl}phenyl)carbamate], with 5.52 to 6.00; and `CCOC(=O)Nc1ccc(OCc2nn(-c3cnn(C)c3)ccc2=O)cc1` [Example 122, ethyl (4-{[1-(1-methyl-1H-pyrazol-4-yl)-4-oxo-1,4-dihydropyridazin-3-yl]methoxy}phenyl)carbamate], with 6.00 to 7.00; and `CC(C)COC(=O)Nc1ccc(OCc2nn(-c3cnn(C)c3)ccc2=O)cc1` [Example 123, 2-methylpropyl (4-{[1-(1-methyl-1H-pyrazol-4-yl)-4-oxo-1,4-dihydropyridazin-3-yl]methoxy}phenyl)carbamate], with 5.52 to 6.00.
As to `C=C(Cc1nn(-c2cnn(C)c2)ccc1=O)c1ccc2ncccc2c1` [Example 124, 1-(1-Methyl-1H-pyrazol-4-yl)-3-(2-quinolin-6-ylprop-2-en-1-yl)pyridazin-4(1H)-one], the negative-log IC50 (pIC50) was 6.00 to 7.00.
For the compound `Cn1cc(-n2ccc(=O)c(OCc3ccc4ncccc4c3)n2)cn1` [Example 127, 1-(1-Methyl-1H-pyrazol-4-yl)-3-(quinolin-6-ylmethoxy)pyridazin-4(1H)-one], the pIC50 was 5.52 to 6.00.
For `CCn1cc(-n2ccc(=O)c(OCc3ccc4ncccc4c3)n2)cn1` [Example 128, 1-(1-ethyl-1H-pyrazol-4-yl)-3-(quinolin-6-ylmethoxy)pyridazin-4(1H)-one], the pIC50 is 6.00 to 7.00.
For `Cn1cc(-c2cnc3ccc(COc4nn(-c5cnn(C)c5)ccc4=O)cc3c2)cn1` [Example 129, 1-(1-methyl-1H-pyrazol-4-yl)-3-{[3-(1-methyl-1H-pyrazol-4-yl)quinolin-6-yl]methoxy}pyridazin-4(1H)-one] the value was over 7.00; for `CC(Oc1nn(-c2cnn(C)c2)ccc1=O)c1ccc2ncccc2c1` (centres unmarked) [Example 130, 1-(1-methyl-1H-pyrazol-4-yl)-3-(1-quinolin-6-ylethoxy)pyridazin-4(1H)-one], 6.00 to 7.00.
For `COc1ccnc2ccc(C(C)Oc3nn(-c4cnn(C)c4)ccc3=O)cc12` (centres unmarked) [Example 131, 3-[1-(4-methoxyquinolin-6-yl)ethoxy]-1-(1-methyl-1H-pyrazol-4-yl)pyridazin-4(1H)-one] the value was 6.00 to 7.00.
On to `CCn1cc(-n2ccc(=O)c(OC(C)c3ccc4nccc(OC)c4c3)n2)cn1` (centres unmarked) [Example 132, 1-(1-ethyl-1H-pyrazol-4-yl)-3-[1-(4-methoxyquinolin-6-yl)ethoxy]pyridazin-4(1H)-one], for which the pIC50 is over 7.00.
Then `CC(Oc1nn(-c2cnn(C)c2)ccc1=O)c1ccc2ncc(-c3cnn(C)c3)cc2c1` (centres unmarked) [Example 136, 1-(1-methyl-1H-pyrazol-4-yl)-3-{1-[3-(1-methyl-1H-pyrazol-4-yl)quinolin-6-yl]ethoxy}pyridazin-4(1H)-one], with over 7.00; and `COc1ccnc2ccc(COc3nn(-c4cnn(C)c4)ccc3=O)cc12` [Example 137, 3-[(4-methoxyquinolin-6-yl)methoxy]-1-(1-methyl-1H-pyrazol-4-yl)pyridazin-4(1H)-one], with 5.52 to 6.00; and `Cn1cc(-n2ccc(=O)c(NCc3ccc4ncccc4c3)n2)cn1` [Example 147, 1-(1-methyl-1H-pyrazol-4-yl)-3-[(quinolin-6-ylmethyl)amino]pyridazin-4(1H)-one], with 6.00 to 7.00.
Then `CC(Nc1nn(-c2cnn(C)c2)ccc1=O)c1ccc2ncccc2c1` (centres unmarked) [Example 148], with over 7.00.
For `Cn1cc(-n2ccc(=O)c(SCc3ccc4ncccc4c3)n2)cn1` [Example 149, 1-(1-methyl-1H-pyrazol-4-yl)-3-[(quinolin-6-ylmethyl)thio]pyridazin-4(1H)-one] the value was over 7.00; for `COC(=O)C(Cc1nn(-c2cnn(C)c2)ccc1=O)c1ccc2ncccc2c1` (centres unmarked) [Example 150, Methyl 3-[1-(1-methyl-1H-pyrazol-4-yl)-4-oxo-1,4-dihydropyridazin-3-yl]-2-(quinolin-6-yl)propanoate], 5.52 to 6.00.
